Series [1] deals with Laodelphax striatellus. The series is described as follows: Insecticidal test against Laodelphax striatellus. To be noted: 500 ppm drug solution, rice seedlings immersed 30 seconds, three-instar insects, eight days after inoculation.
The subject of series [2] is Plutella xylostella. The series is described as follows: Insecticidal test against Plutella xylostella. The following applies: 500 ppm drug solution, Chinese cabbage seedlings with eggs immersed about 30 sec, six days after immersion, 25° C.
From the text: Insecticidal Test Against Plutella xylostella
Six days after the immersion in the drug solution, the number of surviving insects was examined. […] In triplicate using 10 per plot.
Series [3] deals with Frankliniella occidentalis. In words: Insecticidal test against Frankliniella occidentalis. The following applies: 500 ppm drug solution sprayed on hatched larvae on Phaseolus vulgaris leaf pieces, four days after treatment.
From the text: Insecticidal Test Against Frankliniella occidentalis
Female adults of Frankliniella occidentalis were inoculated onto Phaseolus vulgaris leaf pieces, and after allowing them to lay eggs for one day, the female adults were removed. […] Four days after the treatment, the number of surviving larvae of this species larvae was examined. […] In duplicate.

Take `CN1C(=O)C(C(=O)Nc2ccc(Cl)cc2)=C(O)CC1c1ccc(C(F)(F)F)cc1` (stereo not shown) [1-4]: the “corrected mortality, rating of assessment” value (“corrected mortality, rating” below) in series [1] and in series [2] was “D or higher” throughout.
For the compound `O=C(Nc1ccc(F)cc1)C1=C(O)CC(c2ccc(C(F)(F)F)cc2)N(Cc2ccccc2)C1=O` (stereo not shown) [1-5], the “corrected mortality, rating” value in series [3] and in series [2] was “D or higher” in each case.
Turning to `CN1C(=O)C(C(=S)Nc2ccc(F)cc2)=C(O)CC1c1ccc(C(F)(F)F)cc1` (stereo not shown) [1-8], the “corrected mortality, rating” value in series [3] and in series [2] was “D or higher” throughout.
Take `CN1C(=O)C(C(=O)Nc2ccc(F)cn2)=C(O)CC1c1ccc(C(F)(F)F)cc1` (stereo not shown) [1-10]: the “corrected mortality, rating” value in series [2] is “D or higher”.
The same measure, in the same setting: as for `CN1C(=O)C(C(=S)Nc2ccc(F)cn2)=C(O)CC1c1ccc(C(F)(F)F)cc1` (stereo not shown) [1-11], the entry is “D or higher”.
On to `CN1C(=O)C(C(=O)Nc2ccc(F)cc2)=C(O)CC1c1ccc(C(F)(F)F)nc1` (stereo not shown) [1-12], for which the “corrected mortality, rating” value in series [1] and in series [2] was “D or higher” throughout.
Take `CN1C(=O)C(C(=O)Nc2ccc(F)cn2)=C(O)CC1c1ccc(C(F)(F)F)nc1` (stereo not shown) [1-13]: the “corrected mortality, rating” value in series [1] and in series [2] was “D or higher” each time.
Take `CN1C(=O)C(C(=O)Nc2ccc(F)nc2)=C(O)CC1c1ccc(C(F)(F)F)cc1` (stereo not shown) [1-14]: the “corrected mortality, rating” value in series [1], in series [3] and in series [2] was “D or higher” each time.
As to `CN1C(=O)C(C(=O)Nc2ncc(F)cn2)=C(O)CC1c1ccc(C(F)(F)F)cc1` (stereo not shown) [1-15], the “corrected mortality, rating” value in series [2] is recorded as “D or higher”.
On the same count and under the same terms, under `C#CCNC(=O)C1=C(O)CC(c2ccc(C(F)(F)F)cc2)N(C)C1=O` (stereo not shown) [1-27] stands “D or higher”.
As to `CCCN1C(=O)C(C(=O)Nc2ccc(F)cn2)=C(O)CC1c1ccc(C(F)(F)F)nc1` (stereo not shown) [1-31], the “corrected mortality, rating” value in series [1], in series [3] and in series [2] was “D or higher” each time.
On to `CCCN1C(=O)C(C(=O)Nc2ccc(F)cc2)=C(O)CC1c1ccc(C(F)(F)F)nc1` (stereo not shown) [1-32], for which the “corrected mortality, rating” value in series [1] and in series [2] was “D or higher” in each case.
For `C#CCN1C(=O)C(C(=O)Nc2cc(C)on2)=C(O)CC1c1ccc(C(F)(F)F)nc1` (stereo not shown) [1-33], the “corrected mortality, rating” value in series [1], in series [3] and in series [2] was “D or higher” in each case.
For the compound `C#CCN1C(=O)C(C(=O)Nc2ccn(C)n2)=C(O)CC1c1ccc(C(F)(F)F)nc1` (stereo not shown) [1-34], the “corrected mortality, rating” value in series [1] and in series [2] was “D or higher” in each case.
For `C#CCN1C(=O)C(C(=O)Nc2ccnc(F)c2)=C(O)CC1c1ccc(C(F)(F)F)nc1` (stereo not shown) [1-35], the “corrected mortality, rating” value in series [1] and in series [2] was “D or higher” throughout.
Take `C#CCN1C(=O)C(C(=O)Nc2ccc(F)cn2)=C(O)CC1c1ccc(Cl)nc1` (stereo not shown) [1-36]: the “corrected mortality, rating” value in series [1], in series [3] and in series [2] was “D or higher” throughout.
For `C#CCN1C(=O)C(C(=O)Nc2ccc(F)cn2)=C(O)CC1c1ccc(SC)cc1` (stereo not shown) [1-37], the “corrected mortality, rating” value in series [1] and in series [2] was “D or higher” each time.
In the case of `C#CCN1C(=O)C(C(=O)Nc2ccc(F)cn2)=C(O)CC1c1ccc([S+](C)[O-])cc1` (stereo not shown) [1-38], the “corrected mortality, rating” value in series [1] and in series [2] was “D or higher” each time.
In the case of `C#CCN1C(=O)C(C(=O)Nc2ccc(F)cn2)=C(O)CC1c1ccc(S(C)(=O)=O)cc1` (stereo not shown) [1-39], the “corrected mortality, rating” value in series [1] and in series [2] was “D or higher” throughout.
For `C#CCN1C(=O)C(C(=O)Nc2ccc(SC)cc2)=C(O)CC1c1ccc(C(F)(F)F)nc1` (stereo not shown) [1-41], the “corrected mortality, rating” value in series [1] is “D or higher”.
The same measure, in the same setting: under `C#CCN1C(=O)C(C(=O)Nc2ccc([S+](C)[O-])cc2)=C(O)CC1c1ccc(C(F)(F)F)nc1` (stereo not shown) [1-42] stands “D or higher”; under `C#CCN1C(=O)C(C(=O)Nc2ccc(S(C)(=O)=O)cc2)=C(O)CC1c1ccc(C(F)(F)F)nc1` (stereo not shown) [1-43], “D or higher”.
Turning to `C#CCN1C(=O)C(C(=O)Nc2ccc(F)cc2)=C(O)CC1c1ccc(SC)cc1` (stereo not shown) [1-44], in series [2], the “corrected mortality, rating” value is on record as “D or higher”.
In the case of `CN1C(=O)C(C(=O)Nc2ccc(SC(F)(F)F)cc2)=C(O)CC1c1ccc(C(F)(F)F)nc1` (stereo not shown) [1-49], the “corrected mortality, rating” value in series [2] is “D or higher”.
For the compound `CN1C(=O)C(C(=O)Nc2ccc(NS(C)(=O)=O)cc2)=C(O)CC1c1ccc(C(F)(F)F)nc1` (stereo not shown) [1-60], in series [2], the “corrected mortality, rating” value is on record as “D or higher”.
Same read-out and setting: as for `O=C1NCC(c2ccccc2C(F)(F)F)C(O)=C1C(=O)Nc1ccccc1F` (stereo not shown) [3-3], the entry is “D or higher”.
Still for that read-out and setting: as for `O=C1NCC(c2ccc(Cl)cc2)C(O)=C1C(=O)Nc1ccc(F)cc1` (stereo not shown) [3-10], the entry is “D or higher”; as for `CN1CC(C)(c2ccc(C(F)(F)F)cc2)C(O)=C(C(=O)Nc2ccc(F)cc2)C1=O` (stereo not shown) [3-11], “D or higher”; as for `CN1CC(C)(c2ccc(C(F)(F)F)cc2)C(O)=C(C(=O)Nc2ccc(C(F)(F)F)cc2)C1=O` (stereo not shown) [3-12], “D or higher”.
Consider `CCC1(c2ccc(C(F)(F)F)cc2)CN(C)C(=O)C(C(=S)Nc2ccc(F)cn2)=C1O` (stereo not shown) [3-23], for which the “corrected mortality, rating” value in series [1] and in series [2] was “D or higher” each time.
For `CCC1(c2ccc(C(F)(F)F)cc2)CNC(=O)C(C(=O)Nc2ccc(F)cc2)=C1O` (stereo not shown) [3-24], the “corrected mortality, rating” value in series [1] and in series [2] was “D or higher” each time.
As to `CCC1(c2ccc(C(F)(F)F)cc2)CN(C)C(=O)C(C(=O)Nc2ncc(F)cn2)=C1O` (stereo not shown) [3-26], the “corrected mortality, rating” value in series [1] was “D or higher”.
On the same count and under the same terms, as for `CCC1(c2ccc(C(F)(F)F)cc2)CN(C)C(=O)C(C(=O)NN2CCOCC2)=C1O` (stereo not shown) [3-27], the entry is “D or higher”.
With `CCC1(c2ccc(C(F)(F)F)cc2)CN(C)C(=O)C(C(=O)Nc2cnc3ccccc3c2)=C1O` (stereo not shown) [3-29], the “corrected mortality, rating” value in series [2] was “D or higher”.
In the case of `CCC1(c2ccc(C(F)(F)F)cc2)CN(C)C(=O)C(C(=O)Nc2ccc(OC)cc2)=C1O` (stereo not shown) [3-31], the “corrected mortality, rating” value in series [1] and in series [2] was “D or higher” throughout.
`CCC1(c2ccc(C(F)(F)F)cc2)CN(C)C(=O)C(C(=O)Nc2ccc(C)cc2)=C1O` (stereo not shown) [3-34]: the “corrected mortality, rating” value in series [2] was “D or higher”.
For `CCC1(c2ccc(C(F)(F)F)cc2)CN(C)C(=O)C(C(=O)Nc2ccc(S(C)(=O)=O)cc2)=C1O` (stereo not shown) [3-35], the “corrected mortality, rating” value in series [1] and in series [2] was “D or higher” in each case.
Turning to `CCC1(c2ccc(C(F)(F)F)cc2)CN(C)C(=O)C(C(=O)Nc2ccc(C3CC3)cc2C)=C1O` (stereo not shown) [3-38], the “corrected mortality, rating” value in series [2] is listed as “D or higher”.
Same read-out and setting: under `CN1C(=O)C(C(=O)Nc2ccc(C(F)(F)F)cc2)=C(O)CC1c1ccc(C(F)(F)F)cc1` (stereo not shown) [compound No. 1-1, 4-hydroxy-1-methyl-2-oxo-N, 6-bis(4-(trifluoromethyl)phenyl)-1,2,5,6-tetrahydropyridine-3-carboxamide] stands “D or higher”.
Same read-out and setting: as for `CN1C(=O)C(C(=O)Nc2ccc(OC(F)(F)F)cc2)=C(O)CC1c1ccc(C(F)(F)F)cc1` (stereo not shown) [compound No. 1-2], the entry is “D or higher”.
Still for that read-out and setting: as for `CN1C(=O)C(C(=O)NCc2ccc(F)cc2)=C(O)CC1c1ccc(C(F)(F)F)cc1` (stereo not shown) [compound No. 1-3], the entry is “D or higher”.
Regarding `CN1C(=O)C(C(=S)Nc2ccc(C(F)(F)F)cc2)=C(O)CC1c1ccc(C(F)(F)F)cc1` (stereo not shown) [compound No. 1-9, 4-hydroxy-1-methyl-2-oxo-N, 6-bis(4-(trifluoromethyl)phenyl)-1,2,5,6-tetrahydropyridine-3-carbothioamide], the “corrected mortality, rating” value in series [3] and in series [2] was “D or higher” each time.
With `O=C(Nc1ccc(F)cc1)C1=C(S)CC(c2ccc(C(F)(F)F)nc2)NC1=O` (stereo not shown) [compound No. 1-28, N-(4-fluorophenyl)-4-mercapto-6-oxo-6′-(trifluoromethyl)-1,2,3,6-tetrahydro-[2,3′-bipyridine]-5-carboxamide], the “corrected mortality, rating” value in series [1], in series [3] and in series [2] was “D or higher” throughout.
On to `CSC1=C(C(=O)Nc2ccc(F)cc2)C(=O)NC(c2ccc(C(F)(F)F)nc2)C1` (stereo not shown) [compound No. 1-29, N-(4-fluorophenyl)-4-(methylthio)-6-oxo-6′-(trifluoromethyl)-1,2,3,6-tetrahydro-[2,3′-bipyridine]-5-carboxamide], for which the “corrected mortality, rating” value in series [2] is recorded as “D or higher”.
With `C[S+]([O-])C1=C(C(=O)Nc2ccc(F)cc2)C(=O)NC(c2ccc(C(F)(F)F)nc2)C1` (stereo not shown) [compound No. 1-30, N-(4-fluorophenyl)-4-(methylsulfinyl)-6-oxo-6′-(trifluoromethyl)-1,2,3,6-tetrahydro-[2,3′-bipyridine]-5-carboxamide], the “corrected mortality, rating” value in series [1], in series [3] and in series [2] was “D or higher” throughout.
